Laboratory results: publication PMC11077972, “Optimization of the antifungal properties of the bacterial peptide EntV by variant analysis” (mBio, 2024)
Where a SMILES comes first, the peptide text is derived from it. Bridges are numbered along the chain shown (N, C = ends). [ ]: non-standard residue; d: D form. R8 = C=CCCCCCC[C@@](C)(N)C(=O)O; S5 = C=CCCC[C@](C)(N)C(=O)O

Key:
C. albicans biofilm = C. albicans biofilm assay in artificial saliva medium (crystal violet); assay type: cell-based, Candida albicans; conditions: 10 nM peptide
Procedure: Briefly, C. albicans strains were grown in YPD broth for 18 hrs at 30°C with agitation and then sub-cultured for 4 hrs in the same conditions. Cells were then collected by centrifugation at 16,000 x g for 30 s, washed twice in PBS, and adjusted to a concentration of 5 × 10^6 cells/mL (measured with Countess II, Life Technologies) in PBS treated with the 10 nM peptide. The cell suspension was incubated for 1 hr at 30°C with agitation at 200 rpm. Then, 100 µL of the cell suspension was added to wells of a 96-well tissue culture-treated polystyrene plate (Falcon). The PBS and unadhered cells were removed and then replaced with 200 µL of the artificial saliva medium ([15], [60]) containing the 10 nM peptide. The plate was then incubated at 37°C for 48 h.
After incubation, the medium was gently removed along with any planktonic cells. The biofilm was then stained for 20 min with 50 µL of 0.08% crystal violet solution (Sigma). The crystal violet stain was then aspirated, and the wells were washed four times with sterile water. Biofilms were de-stained with 200 µL of 200 proof ethanol for 20 min, and 100 µL of the ethanol solution was transferred to a new well for analysis.

C. albicans = assay: C. elegans survival assay after infection with C. albicans; assay type: in vivo, Candida albicans; conditions: 1 nM peptide; for Median survival: C. albicans infected C. elegans, 25°C, experiment with 12aa (i+7 staple)
Procedure: C. elegans infection assays were performed with strain glp-4(bn2);sek-1(km-4) ([40]), which were propagated and maintained on E. coli strain OP50 grown as lawns on nematode growth medium (NGM) agar using standard techniques ([58]). To synchronize the nematodes to the same stage of growth, L1 stage worms on non-starved plates were washed off, filtered through a 10- µm filter (pluriSelect, pluriStrainer 10 µm), harvested by centrifugation at 1,500 rpm for 60 seconds, transferred to OP50-seeded plates, and grown to the L4 stage.
To prepare the infection plates, fungal strains were grown in BHI broth overnight at 30°C with agitation. About 500 µL of the culture was plated onto BHI solid medium containing gentamycin (10 µg/mL) and grown for 24 hrs at 37°C. The synchronized L4 C. elegans nematodes were then washed off the OP50 plates in 2 mL sterile M9 buffer and washed once, centrifuging at 800 rpm for 30 seconds to collect the nematodes. Nematodes were infected by placing them on the fungal lawn for 4 hrs at 25°C. Following this exposure, they were washed off the plate and washed four times with 2 mL of sterile M9. The nematodes were then pipetted (~30 per well with two wells per condition for a total of ~60 worms assayed) into six-well plates with 2 mL of the liquid medium (20% BHI broth and 80% M9) containing 1 nM of the peptide. A DMSO-untreated control was used with each experiment. Plates were incubated at 25°C, and worm death was scored daily. Kaplan–Meier survival curves were generated and analyzed, as described in the quantification and statistical analysis section.

CC(C)C[C@@H]1NC(=O)[C@H](C)NC(=O)[C@H](CC(C)C)NC(=O)[C@H](CCC(N)=O)NC(=O)CNC(=O)[C@@](C)(NC(=O)[C@@H](N)C(C)C)CCC/C=C\CCCCCC[C@](C)(C(=O)N[C@H](C(=O)N[C@@H](CCC(N)=O)C(=O)N[C@@H](CS)C(N)=O)C(C)C)NC(=O)[C@H](Cc2c[nH]c3ccccc23)NC1=O [12aa (i+7 staple)] (H-V[S5]GQLALW[R8]VQC-NH2; staple (Z) 2-9)
Antifungal activity in biofilm assay (C. albicans biofilm): fully active
Protection of C. elegans from C. albicans infection relative to parent peptide (C. albicans; survival curves, Mantel–Cox log rank): remained as effective as the original
Median survival (C. albicans; trial 1): 12 days
Median survival (C. albicans; trial 2): 11.5 days
